Results published in BindingDB's records for doi:10.7270/Q2ZG6QP2 (Nmmlsc, 2010).

What follows are compounds tested against T1, Integrin alpha-4 (Homo sapiens, UniProt P13612) (assay: VLA-4 allosteric modulator potency, dose response, cell-based, U937, HUTS-21 LIBS antibody, flow cytometry (AID 449766)). Conditions: not given.
T1 sequence (P13612 whole entry): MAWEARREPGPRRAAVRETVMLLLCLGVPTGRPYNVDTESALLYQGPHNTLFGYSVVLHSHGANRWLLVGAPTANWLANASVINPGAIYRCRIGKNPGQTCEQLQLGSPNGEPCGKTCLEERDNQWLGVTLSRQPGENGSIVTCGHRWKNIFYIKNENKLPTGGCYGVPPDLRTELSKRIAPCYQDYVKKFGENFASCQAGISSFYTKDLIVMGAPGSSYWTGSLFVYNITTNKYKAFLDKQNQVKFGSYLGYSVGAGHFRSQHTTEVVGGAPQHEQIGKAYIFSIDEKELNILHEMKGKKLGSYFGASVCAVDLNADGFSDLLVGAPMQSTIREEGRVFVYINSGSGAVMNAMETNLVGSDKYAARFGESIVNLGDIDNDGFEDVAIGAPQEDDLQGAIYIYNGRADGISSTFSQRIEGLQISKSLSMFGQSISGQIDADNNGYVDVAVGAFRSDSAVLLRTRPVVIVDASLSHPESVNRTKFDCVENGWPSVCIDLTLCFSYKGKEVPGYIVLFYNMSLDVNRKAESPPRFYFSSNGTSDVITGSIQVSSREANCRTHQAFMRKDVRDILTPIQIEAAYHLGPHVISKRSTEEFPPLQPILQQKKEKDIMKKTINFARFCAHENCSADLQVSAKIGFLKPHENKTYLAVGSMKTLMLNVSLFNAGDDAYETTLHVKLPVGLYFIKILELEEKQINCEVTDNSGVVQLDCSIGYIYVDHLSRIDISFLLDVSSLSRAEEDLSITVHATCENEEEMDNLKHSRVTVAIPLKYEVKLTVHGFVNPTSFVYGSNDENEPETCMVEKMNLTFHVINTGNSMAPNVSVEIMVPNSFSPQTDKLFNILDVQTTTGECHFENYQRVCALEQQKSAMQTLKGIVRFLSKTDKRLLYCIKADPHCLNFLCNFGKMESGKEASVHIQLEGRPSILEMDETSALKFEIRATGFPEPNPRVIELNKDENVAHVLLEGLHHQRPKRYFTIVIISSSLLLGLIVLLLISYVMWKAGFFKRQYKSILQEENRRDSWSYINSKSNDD

Compound | EC50 [µM]
COc1cccc(-c2sc3ccccc3c2-c2ccc(OCCN3CCCC3)cc2)c1 | > 30
COc1cccc(-c2sc3ccccc3c2-c2ccc(OCCN(C)C)cc2)c1 | 12.4
c1ccc(-c2sc3ccccc3c2-c2ccc(OCCN3CCCC3)cc2)cc1 [1-[2-[4-(2-phenyl-1-benzothiophen-3-yl)phenoxy]ethyl]pyrrolidine] | 14.8
COC(=O)C1CN(C#N)N(c2ccc(Cl)cc2)C12c1ccccc1-c1ccccc12 (configuration not stated) [2'-(4-chlorophenyl)-1'-cyano-4'-spiro[fluorene-9,3'-pyrazolidine]carboxylic acid methyl ester] | 6.71
C[S+]([O-])c1nc(-c2ccc(Br)cc2)cc(-c2ccccc2)c1C#N (configuration not stated) [6-(4-bromophenyl)-2-(methylsulfinyl)-4-phenylnicotinonitrile] | 2.67
COC(=O)[C@@H]1[C@@H](C(=O)OC)C2(c3ccccc3-c3ccccc32)N(c2ccc(Cl)cc2)N1C#N [(3'S,4'R)-1'-(4-chlorophenyl)-2'-cyanospiro[fluorene-9,5'-pyrazolidine]-3',4'-dicarboxylic acid dimethyl ester] | > 30
CC(NC(=O)/C(C#N)=C/c1ccc(Cl)c([N+](=O)[O-])c1)c1ccccc1 (configuration not stated) [(E)-3-(4-chloro-3-nitrophenyl)-2-cyano-N-(1-phenylethyl)prop-2-enamide] | 0.95
CCOCCCNC(=O)/C(C#N)=C/c1ccc(Cl)c([N+](=O)[O-])c1 [(E)-3-(4-chloro-3-nitrophenyl)-2-cyano-N-(3-ethoxypropyl)-2-propenamide] | 3.59
COc1ccc(C(=O)c2cc([N+](=O)[O-])ccc2N2CCOCC2)cc1 [MLS000663963] | > 30
C=C1C(O)[C@@H]2O[C@]3(CC[C@H](/C=C/C(C)[C@@H]4CC(C)=CC5(O[C@H](C[C@@](C)(O)CO)CCC5O)O4)O3)CC[C@H]2O[C@@H]1C(O)CC(C)[C@H]1OC2(CCCCO2)CCC1C (some centres not stated) [MLS002320507] | 0.61
C=C(C=O)C[C@@H]1C[C@H](O)C2OC3C[C@]4(C)OC5/C=C\CC6OC7C(CC=CCC6OC5CCCC4OC3CC2O1)OC1CC2OC3CC(=O)OC3C[C@@H](C)C[C@@]2(C)OC1C[C@@H]7C (some centres not stated) [MLS002320514] | 2.15
COc1ccc(-c2sc3ccccc3c2-c2ccc(OCCN(C)C)cc2)cc1 [MLS002473632] | > 30
Cc1ccc(NC(=O)c2cc(N3C(=O)C=CC3=O)ccc2N2CCOCC2)cc1Cl [N-(3-chloro-4-methylphenyl)-5-(2,5-dioxo-2,5-dihydro-1H-pyrrol-1-yl)-2-(4-morpholinyl)benzamide] | 5.5
O=C(COc1ccc(C=NNC(=O)c2cc3ccccc3o2)cc1Cl)Nc1ccccc1 [SMR000160815] | > 30
CCOC(=O)COc1ccccc1/C=C\[N+](=O)[O-] [SMR000204386] | 2.45
CN(C)CCOc1ccc(-c2c(-c3ccccc3)sc3ccccc23)cc1 [SMR001397792] | > 30
CCOC(=O)C(=Cc1ccc(OC(F)F)cc1)C1=Nn2c(nnc2-c2ccc(Cl)cc2)SC1 [ethyl (Z)-2-[3-(4-chlorophenyl)-7H-[1,2,4]triazolo[3,4-b][1,3,4]thiadiazin-6-yl]-3-[4-(difluoromethoxy)phenyl]prop-2-enoate] | 7.79
COC(=O)C[C@]1(C(=O)OC)CN(C#N)N(c2ccc(Cl)cc2)C12c1ccccc1-c1ccccc12 [methyl 1-(4-chlorophenyl)-2-cyano-4-(2-methoxy-2-oxoethyl)spiro[pyrazolidine-5,9'-(9'H)-fluorene]-4-carboxylate] | > 30

Same assay, conditions: inactive by the depositor's call

Compound | EC50 [µM]
CC1(C)C[C@H]2C=C(C=O)[C@]3(C=O)C[C@]3(C)[C@H]2C1 | 3.15
FC(F)(F)c1nnc(-c2ccccc2)nc1Sc1ccc(Cl)cc1 [SMR000180067] | 0.73
COc1cccc(-c2sc3ccc(OC)cc3c2-c2ccc(OCCN(C)C)cc2)c1 [SMR001397780] | 0.22
COc1cccc(-c2sc3ccccc3c2-c2ccc(OCCN3CCCCC3)cc2)c1 [SMR001397793] | 5.46
